From PubChem BioAssay AID248 (DTP/NCI, 2004)
Where “and” joins values, the source holds several entries; their conditions need not be identical. Identical values can stand only once. Toxic doses and inconclusive results are not listed. Rule as the data show it: active = T/C of 150% or more; inactive = T/C below 125%.

System: L1210 leukemia ip in BDF1 mice, survival T/C
Test: NCI In Vivo Anticancer Drug Screen. Data for tumor model L1210 Leukemia (intraperitoneal) in B6D2F1 (BDF1) mice
Conditions: endpoint: mean survival time, higher = longer survival
Method in brief: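 Transplanted-tumor mice were given test agent; controls received vehicle only. Survival readings from the two groups were divided (treated over control).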

[1] = dose: 100.0 mg/kg/injection, schedule: Q04DX002 (ip), vehicle: Klucel (hydroxypropylcellulose) (HPC)
[2] = dose: 200.0 mg/kg/injection, schedule: Q04DX002 (ip), vehicle: Klucel (hydroxypropylcellulose) (HPC)
[3] = dose: 400.0 mg/kg/injection, schedule: Q04DX002 (ip), vehicle: Klucel (hydroxypropylcellulose) (HPC)
[4] = dose: 100.0 mg/kg/injection, schedule: Q04DX003 (ip), vehicle: saline with Tween-80
[5] = dose: 200.0 mg/kg/injection, schedule: Q04DX003 (ip), vehicle: saline with Tween-80
[6] = dose: 400.0 mg/kg/injection, schedule: Q04DX003 (ip), vehicle: saline with Tween-80
[7] = dose: 100.0 mg/kg/injection, schedule: Q04DX003 (ip), vehicle: Klucel (hydroxypropylcellulose) (HPC)
[8] = dose: 200.0 mg/kg/injection, schedule: Q04DX003 (ip), vehicle: Klucel (hydroxypropylcellulose) (HPC)
[9] = dose: 400.0 mg/kg/injection, schedule: Q04DX003 (ip), vehicle: Klucel (hydroxypropylcellulose) (HPC)
[10] = dose: 100.0 mg/kg/injection, schedule: Q04DX003 (ip), vehicle: saline
[11] = dose: 200.0 mg/kg/injection, schedule: Q04DX003 (ip), vehicle: saline
[12] = dose: 400.0 mg/kg/injection, schedule: Q04DX003 (ip), vehicle: saline
[13] = dose: 100.0 mg/kg/injection, schedule: Q01DX001 (ip), vehicle: carboxymethylcellulose (CMC)
[14] = dose: 100.0 mg/kg/injection, schedule: Q01DX009 (ip), vehicle: Klucel (hydroxypropylcellulose) (HPC)
[15] = dose: 200.0 mg/kg/injection, schedule: Q01DX009 (ip), vehicle: Klucel (hydroxypropylcellulose) (HPC)
[16] = dose: 400.0 mg/kg/injection, schedule: Q01DX009 (ip), vehicle: Klucel (hydroxypropylcellulose) (HPC)

Measured: T/C

Cc1ccc([N+](=O)[O-])cc1NC(=O)N(Cc1ccccc1)Cc1ccccc1
inactive: [1] 95 % of control | [2] 100 % of control | [3] 106 % of control

O=C(Nc1ccc([N+](=O)[O-])cc1[N+](=O)[O-])C(Cl)(Cl)Cl
inactive: [4] 94 % of control | [5] 96 % of control | [6] 105 % of control

O=S(=O)(O)Nc1cccc(Cl)c1
inactive: dose: 100.0 mg/kg/injection, schedule: Q04DX002 (ip), vehicle: saline with Tween-80 100 % of control | dose: 200.0 mg/kg/injection, schedule: Q04DX002 (ip), vehicle: saline with Tween-80 111 % of control | dose: 400.0 mg/kg/injection, schedule: Q04DX002 (ip), vehicle: saline with Tween-80 88 % of control

CCC(Cl)COP(=O)(OCC(Cl)CC)C(OP(=S)(OCC(Cl)CC)OCC(Cl)CC)c1ccc(Cl)c(Cl)c1 (stereo not drawn)
inactive: dose: 25.0 mg/kg/injection, schedule: Q04DX002 (sc), vehicle: olive oil, sesame oil, peanut oil 123 % of control | dose: 50.0 mg/kg/injection, schedule: Q04DX002 (sc), vehicle: olive oil, sesame oil, peanut oil 108 % of control | dose: 100.0 mg/kg/injection, schedule: Q04DX002 (sc), vehicle: olive oil, sesame oil, peanut oil 118 % of control

CC(C)(C)OC(=O)C(C1NC2C(=O)OCC2(CO)S1)N1C(=O)c2ccccc2C1=O (stereo not drawn)
inactive: [7] 95 % of control | [8] 92 % of control | [9] 101 % of control

NS(=O)(=O)c1ccc(NC(=O)Nc2cccc(CNC(=O)COc3ccc(Cl)cc3C(=O)O)c2)cc1
inactive: dose: 100.0 mg/kg/injection, schedule: Q01DX001 (ip), vehicle: Klucel (hydroxypropylcellulose) (HPC) 98 % of control | dose: 200.0 mg/kg/injection, schedule: Q01DX001 (ip), vehicle: Klucel (hydroxypropylcellulose) (HPC) 91 % of control | dose: 400.0 mg/kg/injection, schedule: Q01DX001 (ip), vehicle: Klucel (hydroxypropylcellulose) (HPC) 98 % of control

Cc1cc[n+](CCc2ccccc2)cc1
inactive: dose: 12.5 mg/kg/injection, schedule: Q01DX009 (ip), vehicle: carboxymethylcellulose (CMC) 97 % of control | dose: 25.0 mg/kg/injection, schedule: Q01DX009 (ip), vehicle: carboxymethylcellulose (CMC) 97 % of control | dose: 50.0 mg/kg/injection, schedule: Q01DX009 (ip), vehicle: carboxymethylcellulose (CMC) 105 % of control | dose: 50.0 mg/kg/injection, schedule: Q04DX003 (ip), vehicle: saline 100 % of control | dose: 75.0 mg/kg/injection, schedule: Q01DX001 (ip), vehicle: carboxymethylcellulose (CMC) 108 % of control | dose: 75.0 mg/kg/injection, schedule: Q01DX001 (ip), vehicle: other 104 % of control | [10] 92 % of control and 100 % of control | dose: 150.0 mg/kg/injection, schedule: Q01DX001 (ip), vehicle: carboxymethylcellulose (CMC) 115 % of control | dose: 150.0 mg/kg/injection, schedule: Q01DX001 (ip), vehicle: other 104 % of control | dose: 300.0 mg/kg/injection, schedule: Q01DX001 (ip), vehicle: other 105 % of control

Cc1cccc2ccccc12
inactive: [1] 107 % of control | [2] 107 % of control | [3] 107 % of control

O=C1c2ccccc2CCCC1N1CCOCC1 (stereo not drawn)
inactive: [4] 95 % of control | [5] 94 % of control | [6] 87 % of control

CC(=O)Nc1cc(C)c(Cl)cc1Cl
inactive: dose: 31.25 mg/kg/injection, schedule: Q01DX009 (ip), vehicle: saline 103 % of control | dose: 62.5 mg/kg/injection, schedule: Q01DX009 (ip), vehicle: saline 103 % of control | [10] 100 % of control | dose: 125.0 mg/kg/injection, schedule: Q01DX009 (ip), vehicle: saline 102 % of control | [11] 105 % of control | [12] 101 % of control

CC/C(=C(\CC)c1ccc(OCCN(CC)CC)cc1)c1ccc(OCCN(CC)CC)cc1
inactive: dose: 5.0 mg/kg/injection, schedule: Q01DX001 (ip), vehicle: carboxymethylcellulose (CMC) 94 % of control | dose: 10.0 mg/kg/injection, schedule: Q01DX001 (ip), vehicle: carboxymethylcellulose (CMC) 96 % of control | dose: 40.0 mg/kg/injection, schedule: Q01DX001 (ip), vehicle: carboxymethylcellulose (CMC) 94 % of control | [13] 106 % of control

Oc1ccc2ccccc2c1/C=N/N=c1\[nH][nH]/c(=N\N=C\c2c(O)ccc3ccccc23)c2ccccc12
inactive: dose: 50.0 mg/kg/injection, schedule: Q01DX001 (ip), vehicle: carboxymethylcellulose (CMC) 95 % of control | [13] 93 % of control | dose: 200.0 mg/kg/injection, schedule: Q01DX001 (ip), vehicle: carboxymethylcellulose (CMC) 98 % of control | dose: 400.0 mg/kg/injection, schedule: Q01DX001 (ip), vehicle: carboxymethylcellulose (CMC) 87 % of control

CCOC(=O)c1ccc(SC(Cl)(Cl)Cl)cc1
inactive: dose: 100.0 mg/kg/injection, schedule: Q01DX001 (ip), vehicle: alcohol 98 % of control | dose: 200.0 mg/kg/injection, schedule: Q01DX001 (ip), vehicle: alcohol 107 % of control | dose: 400.0 mg/kg/injection, schedule: Q01DX001 (ip), vehicle: alcohol 120 % of control

CCCc1cc(C(C)=O)c[n+](C2OC(COC(C)=O)C(OC(C)=O)C(OC(C)=O)C2OC(C)=O)c1 (stereo not drawn)
inactive: dose: 50.0 mg/kg/injection, schedule: Q01DX005 (ip), vehicle: water 97 % of control | dose: 100.0 mg/kg/injection, schedule: Q01DX005 (ip), vehicle: water 97 % of control

Cc1ccc(S(=O)(=O)N(CCC#N)CCC#N)cc1
inactive: dose: 25.0 mg/kg/injection, schedule: Q01DX009 (ip), vehicle: Klucel (hydroxypropylcellulose) (HPC) 106 % of control | dose: 50.0 mg/kg/injection, schedule: Q01DX009 (ip), vehicle: Klucel (hydroxypropylcellulose) (HPC) 112 % of control | [14] 97 % of control and 101 % of control | [15] 92 % of control | [16] 96 % of control

C/C=C/C=C/COC(=O)C=C(C)C
inactive: dose: 100.0 mg/kg/injection, schedule: Q04DX002 (ip), vehicle: saline 107 % of control | dose: 200.0 mg/kg/injection, schedule: Q04DX002 (ip), vehicle: saline 101 % of control | dose: 400.0 mg/kg/injection, schedule: Q04DX002 (ip), vehicle: saline 107 % of control

O=C(Nc1ccc(NC(=O)Nc2cccc(C3=NCCN3)c2)cc1)Nc1ccc(C2=NCCN2)cc1
inactive: dose: 1.0 mg/kg/injection, schedule: Q01DX Z (ip), vehicle: carboxymethylcellulose (CMC) 88 % of control | dose: 2.0 mg/kg/injection, schedule: Q01DX Z (ip), vehicle: carboxymethylcellulose (CMC) 102 % of control | dose: 4.0 mg/kg/injection, schedule: Q01DX Z (ip), vehicle: carboxymethylcellulose (CMC) 95 % of control | dose: 8.0 mg/kg/injection, schedule: Q01DX Z (ip), vehicle: carboxymethylcellulose (CMC) 107 % of control | dose: 14.0 mg/kg/injection, schedule: Q01DX Z (oral), vehicle: carboxymethylcellulose (CMC) 108 % of control | dose: 21.0 mg/kg/injection, schedule: Q01DX Z (oral), vehicle: carboxymethylcellulose (CMC) 109 % of control | dose: 32.0 mg/kg/injection, schedule: Q01DX Z (oral), vehicle: carboxymethylcellulose (CMC) 103 % of control | dose: 36.0 mg/kg/injection, schedule: Q01DX Z (ip), vehicle: carboxymethylcellulose (CMC) 116 % of control | dose: 48.0 mg/kg/injection, schedule: Q01DX Z (oral), vehicle: carboxymethylcellulose (CMC) 103 % of control | dose: 72.0 mg/kg/injection, schedule: Q01DX Z (oral), vehicle: carboxymethylcellulose (CMC) 122 % of control | dose: 125.0 mg/kg/injection, schedule: Q01DX Z (ip), vehicle: saline 91 % of control
active: dose: 18.0 mg/kg/injection, schedule: Q01DX Z (ip), vehicle: carboxymethylcellulose (CMC) 202 % of control | dose: 62.0 mg/kg/injection, schedule: Q01DX Z (ip), vehicle: saline 164 % of control

CCC(C)(C)c1cc(Sc2cc(C(C)(C)CC)cc(C(C)(C)CC)c2O)c(O)c(C(C)(C)CC)c1
inactive: [10] 109 % of control | [11] 100 % of control | [12] 88 % of control

COC(=O)c1ccccc1NC(=O)NCCBr
inactive: [14] 95 % of control | [7] 103 % of control | [15] 93 % of control | [8] 97 % of control | [16] 93 % of control | [9] 110 % of control
